Values joined by “and” are separate entries in the source; they are usually repeats but may differ in a detail not shown here. Equal values may be shown once. Toxic doses and inconclusive results are not listed.
System: P388 leukemia ip, CD2F1 mice, survival T/C
Assay: NCI In Vivo Anticancer Drug Screen. Data for tumor model P388 Leukemia (intraperitoneal) in CD2F1 (CDF1) mice
Settings: endpoint: median survival time, higher = longer survival
Summary of the method: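 Mice carrying the transplanted tumor received test compound or vehicle. Survival was recorded in each group, and the value is the treated-group measurement divided by that of the vehicle-treated control group.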

[1] = dose: 100.0 mg/kg/injection, schedule: Q01DX009 (ip), vehicle: saline with Tween-80
[2] = dose: 200.0 mg/kg/injection, schedule: Q01DX009 (ip), vehicle: saline with Tween-80
[3] = dose: 400.0 mg/kg/injection, schedule: Q01DX009 (ip), vehicle: saline with Tween-80
[4] = dose: 50.0 mg/kg/injection, schedule: Q01DX009 (ip), vehicle: Klucel (hydroxypropylcellulose) (HPC)
[5] = dose: 100.0 mg/kg/injection, schedule: Q01DX009 (ip), vehicle: Klucel (hydroxypropylcellulose) (HPC)
[6] = dose: 200.0 mg/kg/injection, schedule: Q01DX009 (ip), vehicle: Klucel (hydroxypropylcellulose) (HPC)
[7] = dose: 60.0 mg/kg/injection, schedule: Q01DX005 (ip), vehicle: saline with Tween-80
[8] = dose: 120.0 mg/kg/injection, schedule: Q01DX005 (ip), vehicle: saline with Tween-80
[9] = dose: 240.0 mg/kg/injection, schedule: Q01DX005 (ip), vehicle: saline with Tween-80
[10] = dose: 100.0 mg/kg/injection, schedule: Q04DX003 (ip), vehicle: Klucel (hydroxypropylcellulose) (HPC)
[11] = dose: 200.0 mg/kg/injection, schedule: Q04DX003 (ip), vehicle: Klucel (hydroxypropylcellulose) (HPC)
[12] = dose: 50.0 mg/kg/injection, schedule: Q01DX009 (ip), vehicle: saline with Tween-80
[13] = dose: 50.0 mg/kg/injection, schedule: Q01DX005 (ip), vehicle: Klucel (hydroxypropylcellulose) (HPC)
[14] = dose: 100.0 mg/kg/injection, schedule: Q01DX005 (ip), vehicle: Klucel (hydroxypropylcellulose) (HPC)
[15] = dose: 200.0 mg/kg/injection, schedule: Q01DX005 (ip), vehicle: Klucel (hydroxypropylcellulose) (HPC)
[16] = dose: 50.0 mg/kg/injection, schedule: Q01DX009 (ip), vehicle: saline
[17] = dose: 100.0 mg/kg/injection, schedule: Q01DX009 (ip), vehicle: saline
[18] = dose: 200.0 mg/kg/injection, schedule: Q01DX009 (ip), vehicle: saline
[19] = dose: 100.0 mg/kg/injection, schedule: Q04DX003 (ip), vehicle: saline with Tween-80
[20] = dose: 200.0 mg/kg/injection, schedule: Q04DX003 (ip), vehicle: saline with Tween-80
[21] = dose: 400.0 mg/kg/injection, schedule: Q04DX003 (ip), vehicle: saline with Tween-80
[22] = dose: 6.25 mg/kg/injection, schedule: Q01DX009 (ip), vehicle: saline with Tween-80

In the case of `COC(=O)c1ccc(O)c(O)c1`, the T/C [1] is reported as 104 % of control, the T/C [2] is reported as 100 % of control and the T/C [3] is reported as 100 % of control.

`O=[N+]([O-])c1ccc(SC(=S)N2CCCCC2)c([N+](=O)[O-])c1` was tested, and the T/C [4] was 105 % of control, the T/C [5] was 106 % of control and the T/C [6] was 111 % of control.

`CCOC(=O)c1ccc(NC(=S)NC(=O)c2cccc(Br)c2)cc1` was tested, and the T/C [7] was 95 % of control, the T/C [8] was 95 % of control and the T/C [9] was 90 % of control.

`CCOC(=O)c1cc(N(CCCl)CCCl)ccc1OC(=O)CC` was tested, and the T/C (dose: 50.0 mg/kg/injection, schedule: Q04DX003 (ip), vehicle: Klucel (hydroxypropylcellulose) (HPC)) was 100 % of control, the T/C [10] was 100 % of control and the T/C [11] was 97 % of control.

For `C=C1C[C@H](O)[C@H]2C(C[Se]c3ccccc3)C(=O)O[C@@H]2[C@H]2[C@H](C)C(=O)C[C@@H]12` (stereo partly specified), the T/C [7] was 97 % of control, the T/C [8] was 95 % of control and the T/C [9] was 92 % of control.

`CC(=O)N(C)N=NCCCl` was tested, and the T/C (dose: 13.12 mg/kg/injection, schedule: Q01DX005 (ip), vehicle: saline with Tween-80) was 157 % of control, the T/C (dose: 26.15 mg/kg/injection, schedule: Q01DX005 (ip), vehicle: saline with Tween-80) was 217 % of control and the T/C (dose: 52.5 mg/kg/injection, schedule: Q01DX005 (ip), vehicle: saline with Tween-80) was 257 % of control. For the same compound, the T/C (dose: 105.0 mg/kg/injection, schedule: Q01DX005 (ip), vehicle: saline with Tween-80) was 171 % of control.

`COC(=O)c1ccc(SCC2(CCN3C(=O)c4ccccc4C3=O)OCCO2)cc1` was tested, and the T/C [10] was 97 % of control, the T/C [11] was 96 % of control and the T/C (dose: 400.0 mg/kg/injection, schedule: Q04DX003 (ip), vehicle: Klucel (hydroxypropylcellulose) (HPC)) was 88 % of control.

`O=S(=O)(CCl)NCCCl` was tested, and the T/C [12] was 100 % of control, the T/C [1] was 106 % of control and the T/C [2] was 106 % of control.

`CC1=CC(C)(C)N=C2SC(=O)c3cc4c(cc3N12)OCO4` was tested, and the T/C (dose: 100.0 mg/kg/injection, schedule: Q04DX002 (ip), vehicle: saline with Tween-80) was 106 % of control, the T/C (dose: 200.0 mg/kg/injection, schedule: Q04DX002 (ip), vehicle: saline with Tween-80) was 98 % of control and the T/C (dose: 400.0 mg/kg/injection, schedule: Q04DX002 (ip), vehicle: saline with Tween-80) was 97 % of control.

With `O=C1COC(c2ccccc2O)=NN1CCCl` the T/C [12] was 103 % of control, the T/C [1] was 103 % of control and the T/C [2] was 110 % of control.

`O=C(Cc1cccs1)c1ccc(O)cc1` was tested, and the T/C [13] was 99 % of control, the T/C [14] was 102 % of control and the T/C [15] was 105 % of control.

With `N#CC(C#N)=C1CCNc2ccccc21` the T/C [1] was 95 % of control, the T/C [2] was 95 % of control and the T/C [3] was 95 % of control.

With `Brc1ccc(Oc2ccc(Br)cc2)cc1` the T/C [4] was 100 % of control, the T/C [5] was 98 % of control and the T/C [6] was 92 % of control.

`CC(N)CN1C=NC(C)C1` (stereo unspecified) was tested, and the T/C [16] was 97 % of control, the T/C [17] was 103 % of control and the T/C [18] was 94 % of control.

With `NC(=O)C(Cc1ccc(O)cc1)NC(=O)OCc1ccccc1` (stereo unspecified) the T/C [13] was 97 % of control, the T/C [14] was 92 % of control and the T/C [15] was 97 % of control.

`N#Cc1c(N2CCOCC2)c(-c2ccccc2)c(N2CCOCC2)n2c1nc1ccccc12` was tested, and the T/C [7] was 90 % of control, the T/C [8] was 96 % of control and the T/C [9] was 87 % of control.

In the case of `COC(=O)C1C(O)CN2CCCC12C` (stereo unspecified), the T/C [19] is reported as 107 % of control, the T/C [20] is reported as 97 % of control and the T/C [21] is reported as 108 % of control.

With `CC(NNC(=S)N1CCCCCC1)c1cc2ccccc2cn1` (stereo unspecified) the T/C (dose: 50.0 mg/kg/injection, schedule: Q01DX005 (ip), vehicle: saline with Tween-80) was 108 % of control and 98 % of control, the T/C (dose: 100.0 mg/kg/injection, schedule: Q01DX005 (ip), vehicle: saline with Tween-80) was 112 % of control and the T/C (dose: 200.0 mg/kg/injection, schedule: Q01DX005 (ip), vehicle: saline with Tween-80) was 123 % of control. For the same compound, the T/C (dose: 400.0 mg/kg/injection, schedule: Q01DX005 (ip), vehicle: saline with Tween-80) was 153 % of control.

For `OCC1OC(n2cnc3c(SCc4ccccc4)ncnc32)C(O)C1O` (stereo unspecified), the T/C (dose: 88.0 mg/kg/injection, schedule: Q01DX009 (ip), vehicle: saline with Tween-80) was 100 % of control, the T/C (dose: 132.0 mg/kg/injection, schedule: Q01DX009 (ip), vehicle: saline with Tween-80) was 95 % of control and the T/C [2] was 86 % of control.

For `Nc1nnnn1/N=C/c1ccccc1`, the T/C (dose: 50.0 mg/kg/injection, schedule: Q04DX002 (ip), vehicle: Klucel (hydroxypropylcellulose) (HPC)) was 87 % of control, the T/C (dose: 100.0 mg/kg/injection, schedule: Q04DX002 (ip), vehicle: Klucel (hydroxypropylcellulose) (HPC)) was 101 % of control and the T/C (dose: 200.0 mg/kg/injection, schedule: Q04DX002 (ip), vehicle: Klucel (hydroxypropylcellulose) (HPC)) was 100 % of control.

For `N#CC(C#N)=Cc1ccc(N2CCCCC2)cc1`, the T/C [16] was 87 % of control, the T/C [17] was 88 % of control and the T/C [18] was 100 % of control.

In the case of `CC(C)CCc1cc(O)c(CCC(C)C)cc1O`, the T/C [22] is reported as 88 % of control, the T/C (dose: 25.0 mg/kg/injection, schedule: Q01DX009 (ip), vehicle: saline with Tween-80) is reported as 109 % of control and the T/C [12] is reported as 108 % of control. The T/C [1] was 114 % of control.

For `COc1ccc(CCNC(=O)c2ccc(OC)c(OCc3ccccc3)c2)cc1OC`, the T/C (dose: 25.0 mg/kg/injection, schedule: Q01DX009 (ip), vehicle: other) was 97 % of control, the T/C (dose: 50.0 mg/kg/injection, schedule: Q01DX009 (ip), vehicle: other) was 95 % of control and the T/C (dose: 100.0 mg/kg/injection, schedule: Q01DX009 (ip), vehicle: other) was 89 % of control. The T/C (dose: 200.0 mg/kg/injection, schedule: Q01DX009 (ip), vehicle: other) was 89 % of control and the T/C (dose: 400.0 mg/kg/injection, schedule: Q01DX009 (ip), vehicle: other) was 90 % of control.

`O=C1C(Br)=C(Br)C(=O)C1(Br)Br` was tested, and the T/C [22] was 118 % of control, the T/C (dose: 6.25 mg/kg/injection, schedule: Q04DX003 (ip), vehicle: saline with Tween-80) was 100 % of control and the T/C (dose: 12.5 mg/kg/injection, schedule: Q04DX003 (ip), vehicle: saline with Tween-80) was 100 % of control. The T/C (dose: 25.0 mg/kg/injection, schedule: Q04DX003 (ip), vehicle: saline with Tween-80) was 120 % of control.

In the case of `C=C1C(=O)C23C(OC(=O)CCCCCCCCCCCCCCC)C1CCC2C12COC3(O)C(O)C1C(C)(C)CCC2O` (stereo unspecified), the T/C (dose: 3.75 mg/kg/injection, schedule: Q01DX009 (ip), vehicle: saline with Tween-80) is reported as 101 % of control, the T/C (dose: 7.5 mg/kg/injection, schedule: Q01DX009 (ip), vehicle: saline with Tween-80) is reported as 104 % of control and the T/C (dose: 15.0 mg/kg/injection, schedule: Q01DX009 (ip), vehicle: saline with Tween-80) is reported as 103 % of control. The T/C (dose: 30.0 mg/kg/injection, schedule: Q01DX009 (ip), vehicle: saline with Tween-80) was 99 % of control.

In the case of `Cn1cc(O)c(=O)n(C)c1=O`, the T/C [19] is reported as 99 % of control, the T/C [20] is reported as 105 % of control and the T/C [21] is reported as 100 % of control.

With `CN(C)P(=O)(N(C)C)N(C)CO` the T/C [16] was 98 % of control and 100 % of control, the T/C [17] was 104 % of control and 110 % of control and the T/C [18] was 121 % of control and 122 % of control. For the same compound, the T/C (dose: 400.0 mg/kg/injection, schedule: Q01DX009 (ip), vehicle: saline) was 86 % of control.

For `S=C(Nc1ccccc1)Nc1nccs1`, the T/C [12] was 108 % of control, the T/C [1] was 107 % of control and the T/C [2] was 117 % of control.

With `CCC12CCC(=O)C=C1CCCC2=O` (stereo unspecified) the T/C (dose: 25.0 mg/kg/injection, schedule: Q01DX009 (ip), vehicle: saline sonified) was 104 % of control, the T/C (dose: 50.0 mg/kg/injection, schedule: Q01DX009 (ip), vehicle: saline sonified) was 86 % of control and the T/C (dose: 100.0 mg/kg/injection, schedule: Q01DX009 (ip), vehicle: saline sonified) was 109 % of control.

In the case of `CC(=O)N/N=C(\C(=O)OC(=NC1CCCCC1)NC1CCCCC1)c1ccccc1`, the T/C [13] is reported as 87 % of control, the T/C [14] is reported as 87 % of control and the T/C [15] is reported as 91 % of control.

For `COC(=O)c1ccnc(-c2cc(C(=O)OC)ccn2)c1`, the T/C [16] was 99 % of control, the T/C [17] was 93 % of control and the T/C [18] was 92 % of control.
